Legend:
[1] = analgesic activity, phenylquinone test in mice via subcutaneous route; format: in vivo; details: for ED50: Mus musculus, sc, mice, subcutaneous, phenylquinone test; for analgesic activity, in words: comparison of enantiomers and racemate
Method: Thirty animals were treated with each product.

[2] = system: alpha 1 adrenergic receptors; assay: affinity for alpha 1 adrenergic receptors, receptor binding test; details: for interference with the adrenergic receptor, in words: comparison with racemate; for IC50: receptor binding
From the text: (§1) Since an interference with the adrenergic system is an index of undesirable effects, both the capability of binding to alpha 1 adrenergic receptors, as IC50 (Table 2), and the alphalytic activity (Table 3) of the same compounds have been evaluated.
As far as the receptor binding test is concerned, reference is made to "Molecular Pharmacology", 20, 295-301, (1981).

[3] = biological target: T1, deferent of rat (Rattus norvegicus); assay: alphalytic activity on an isolated organ (deferent of rat); details: isolated deferent of rat; read-out: Alphalytic activity pA2 (converted)
T1 construct: evaluated on an isolated organ (deferent of rat); from tissue; host or cells: isolated vas deferens of rat
Method: as §1
(§2) In turn, the alphalytic activity was evaluated on an isolated organ (deferent of rat) according to the technique described in "Clinical and Experimental Pharmacology & Physiology", 6, 275-279, (1979).

[4] = biological target: T2, deferent of rat (Rattus norvegicus, UniProt P43140); assay: as above; details: comparison of enantiomers and racemate
T2 construct: evaluated on an isolated organ (deferent of rat); from tissue; host or cells: isolated vas deferens of rat
T2 sequence (P43140 1-466): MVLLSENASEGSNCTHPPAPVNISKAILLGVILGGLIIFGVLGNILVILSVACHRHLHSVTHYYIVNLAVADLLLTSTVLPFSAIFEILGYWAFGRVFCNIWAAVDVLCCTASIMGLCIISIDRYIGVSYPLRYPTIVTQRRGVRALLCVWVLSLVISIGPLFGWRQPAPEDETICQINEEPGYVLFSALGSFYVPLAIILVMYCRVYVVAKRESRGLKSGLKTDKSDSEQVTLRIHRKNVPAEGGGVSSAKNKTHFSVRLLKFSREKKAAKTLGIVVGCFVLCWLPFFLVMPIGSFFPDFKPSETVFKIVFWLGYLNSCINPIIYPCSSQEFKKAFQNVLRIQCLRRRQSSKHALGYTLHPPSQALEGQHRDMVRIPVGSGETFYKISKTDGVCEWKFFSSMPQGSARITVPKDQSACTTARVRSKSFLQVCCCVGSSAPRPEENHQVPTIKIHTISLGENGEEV
Method: as §1, §2

Row | interference with the adrenergic receptor, in words [2] | IC50 [2] | Kb [3] | alphalytic activity, in words [4] | alphalytic activity, in words ([4]; listed as (S) enantiomer) | SMILES | ED50 [1] | analgesic activity, in words [1]
1 | lower than those of racemate | 0.533 µM | 0.178 µM | lower than those of racemate | – | C[C@@H]1CN(c2cccc(Cl)c2)CCN1CCCn1nc2ccccn2c1=O [(R), (R)-2-[3-[4-(3-chlorophenyl)-1-(2-methyl)-piperazinyl]-propyl]-1,2,4-triazol[4,3-a]-pyridine-3(2H)-one] | 9.02 mg/kg | –
2 | – | 0.471 µM | 0.02 µM | – | – | CC1CN(c2cccc(Cl)c2)CCN1CCCn1nc2ccccn2c1=O (racemic) [Racemate, reference compound] | > 12.5 mg/kg | less analgesic activity compared to the single enantiomers
3 | lower than those of racemate | 0.981 µM | 3.98 µM | lower than those of racemate | lower than that of (R) enantiomer | C[C@H]1CN(c2cccc(Cl)c2)CCN1CCCn1nc2ccccn2c1=O [(S), (S)-2-[3-[4-(3-chlorophenyl)-1-(2-methyl)-piperazinyl]-propyl]-1,2,4-triazol[4,3-a]-pyridine-3(2H)-one] | 7.8 mg/kg | more active than (R) enantiomer

— patent US5817815A, “Pharmacologically active enantiomers” (Angelini Ricerche S.p.A. Societa Consortile, priority 1993, dated 1998)
